Reference: EPA's ToxRefDB 2

What was measured:
[1] = system: rat; conditions: Combined chronic toxicity/carcinogenicity, sprague dawley, Oral, Feed, dose end: 113 week, group: systemic
[2] = system: mouse; conditions: Multigenerational reproductive toxicity study; cd1; Oral; Feed; dose end: 1 generation; group: offspring; systemic / in life observation / body weight / offspring (pup) weight
[3] = system: rat; conditions: Prenatal developmental toxicity study; other; Oral; Water; dose end: 19 GD; group: maternal; systemic / in life observation / water consumption / water consumption
[4] = system: rat; conditions: Prenatal developmental toxicity study; other; Oral; Gavage/Intubation; dose end: 19 GD; group: maternal; systemic / in life observation / food consumption / food consumption
[5] = system: mouse; conditions: Combined chronic toxicity/carcinogenicity, cd1, Oral, Feed, dose end: 104 week, group: systemic
[6] = system: mouse; conditions: Developmental neurotoxicity study; cd1; Injection; Subcutaneous; dose end: 35 PND; group: cannot be grouped; developmental / developmental landmark / eye opening / eye opening + systemic / in life observation / clinical signs / [other] + systemic / …
[7] = system: mouse; conditions: Prenatal developmental toxicity study, cd1, Oral, Gavage/Intubation, dose end: 16 GD
[8] = system: rat; conditions: Developmental neurotoxicity study; other; Oral; Water; dose end: 20 PND; group: cannot be grouped; systemic / in life observation / body weight / body weight gain + systemic / in life observation / food consumption / food consumption + …
[9] = system: mouse; conditions: Chronic toxicity, b6c3f1, Oral, Feed, dose end: 2 year, group: systemic
[10] = system: rat; conditions: Combined chronic toxicity/carcinogenicity, fischer, Oral, Feed, dose end: 2 year, group: systemic
[11] = system: mouse; conditions: Subchronic oral toxicity in rodents, cd1, Feed, dose end: 14 week, group: systemic
[12] = system: mouse; conditions: Subchronic oral toxicity in rodents, b6c3f1, Feed, dose end: 14 week, group: systemic, systemic / organ weight / liver / absolute + systemic / organ weight / liver / relative to body weight + systemic / pathology microscopic / …
[13] = system: mouse; conditions: Chronic toxicity; cd1; Oral; Feed; dose end: 57 week; group: systemic; systemic / pathology microscopic / heart / amyloid deposition + systemic / pathology microscopic / liver / eosinophilic focus + systemic / …
[14] = systemic / in life observation / body weight / body weight + systemic / in life observation / clinical signs / feces, discoloration + …
[15] = systemic / in life observation / clinical signs / fur (altered appearance)
[16] = systemic / in life observation / clinical signs / fur (altered appearance) + systemic / in life observation / clinical signs / skin …
[17] = group: developmental, developmental / developmental malformation / bone / supernumerary + developmental / developmental malformation / general / hemorrhage + …
[18] = group: maternal, reproductive / reproductive performance / resorptions / resorptions + systemic / in life observation / clinical signs / abnormal movements…
[19] = systemic / pathology microscopic / liver / hypertrophy + systemic / pathology microscopic / thyroid gland / hyperplasia
[20] = systemic / pathology microscopic / liver / hypertrophy + systemic / pathology microscopic / thyroid gland / hyperplasia + systemic / in life…
[21] = systemic / in life observation / body weight / body weight + systemic / pathology microscopic / kidney / adenoma + systemic / in life …
[22] = systemic / pathology microscopic / kidney / nephropathy
[23] = systemic / in life observation / clinical signs / grip strength + systemic / organ weight / liver / absolute + systemic / organ weight / …
[24] = systemic / organ weight / liver / absolute + systemic / pathology microscopic / liver / hypertrophy

O=C([O-])c1[nH]n(-c2ccc(S(=O)(=O)[O-])cc2)c(=O)c1N=Nc1ccc(S(=O)(=O)[O-])cc1.[Na+].[Na+].[Na+] [FD&C Yellow 5]
LOAEL [1, 14]: > 2640 mg/kg/day | NOAEL [1, 14]: ≥ 2640 mg/kg/day | LEL [1, 15]: 48 mg/kg/day | NEL [1, 15]: < 48 mg/kg/day | LEL [2]: 771 mg/kg/day | LOAEL [2]: > 771 mg/kg/day | NEL [2]: 260 mg/kg/day | NOAEL [2]: ≥ 771 mg/kg/day | LEL [3]: 1060 mg/kg/day | LOAEL [3]: > 1060 mg/kg/day | NEL [3]: 568 mg/kg/day | NOAEL [3]: ≥ 1060 mg/kg/day | LEL [4]: 1000 mg/kg/day | LOAEL [4]: > 1000 mg/kg/day | NEL [4]: 600 mg/kg/day | NOAEL [4]: ≥ 1000 mg/kg/day | LOAEL [5, 14]: > 8100 mg/kg/day | NOAEL [5, 14]: ≥ 8100 mg/kg/day | LEL [5, 16]: 714 mg/kg/day | NEL [5, 16]: < 714 mg/kg/day

CN1CCC[C@H]1c1cccnc1 [Nicotine]
LEL [6]: 0.5 mg/kg/day | LOAEL [6]: > 0.5 mg/kg/day | NEL [6]: < 0.5 mg/kg/day | NOAEL [6]: ≥ 0.5 mg/kg/day | LEL ([7]; group: developmental, developmental / developmental malformation / bone / supernumerary): 12 mg/kg/day | LOAEL [7, 17]: > 20 mg/kg/day | NEL [7, 17]: 4 mg/kg/day | NOAEL [7, 17]: ≥ 20 mg/kg/day | LEL [7, 18]: 12 mg/kg/day | LOAEL [7, 18]: > 20 mg/kg/day | NEL [7, 18]: 4 mg/kg/day | NOAEL [7, 18]: ≥ 20 mg/kg/day | LEL [8]: 2.9 mg/kg/day | LOAEL [8]: > 4.4 mg/kg/day | NEL [8]: < 2.9 mg/kg/day | NOAEL [8]: ≥ 4.4 mg/kg/day

O=C1Nc2ccc(Cl)cc2C(c2ccccc2)=NC1O (stereo unspecified) [Oxazepam]
LOAEL [9, 19]: 12 mg/kg/day | NOAEL [9, 19]: < 12 mg/kg/day | LEL [9, 20]: 12 mg/kg/day | NEL [9, 20]: < 12 mg/kg/day | LOAEL [10, 21]: > 630 mg/kg/day | NOAEL [10, 21]: ≥ 630 mg/kg/day | LEL [10, 22]: 25 mg/kg/day | NEL [10, 22]: < 25 mg/kg/day | LOAEL [11, 23]: > 1400 mg/kg/day | NOAEL [11, 23]: ≥ 1400 mg/kg/day | LEL [11, 24]: 80 mg/kg/day | NEL [11, 24]: < 80 mg/kg/day | LEL [12]: 100 mg/kg/day | LOAEL [12]: > 1810 mg/kg/day | NEL [12]: < 100 mg/kg/day | NOAEL [12]: ≥ 1810 mg/kg/day | LEL [13]: 270 mg/kg/day | LOAEL [13]: 270 mg/kg/day | NEL [13]: < 270 mg/kg/day | NOAEL [13]: < 270 mg/kg/day
